Measurements reported in article PMC6376031, “Enhanced anti-tumor activity of the Multi-Leu peptide PACE4 inhibitor transformed into an albumin-bound tumor-targeting prodrug” (Scientific Reports, 2019).
Where a SMILES comes first, the peptide text is derived from it.

Legend:
recombinant human PACE4 = target: T1, recombinant human PACE4 (Homo sapiens, UniProt P29122); assay: Enzyme kinetic inhibition of recombinant hPACE4; assay type: biochemical; conditions: calculated from IC50 by Cheng and Prusoff, mean ± SD of three experiments
T1 construct: made in house
T1 sequence (P29122 150-969): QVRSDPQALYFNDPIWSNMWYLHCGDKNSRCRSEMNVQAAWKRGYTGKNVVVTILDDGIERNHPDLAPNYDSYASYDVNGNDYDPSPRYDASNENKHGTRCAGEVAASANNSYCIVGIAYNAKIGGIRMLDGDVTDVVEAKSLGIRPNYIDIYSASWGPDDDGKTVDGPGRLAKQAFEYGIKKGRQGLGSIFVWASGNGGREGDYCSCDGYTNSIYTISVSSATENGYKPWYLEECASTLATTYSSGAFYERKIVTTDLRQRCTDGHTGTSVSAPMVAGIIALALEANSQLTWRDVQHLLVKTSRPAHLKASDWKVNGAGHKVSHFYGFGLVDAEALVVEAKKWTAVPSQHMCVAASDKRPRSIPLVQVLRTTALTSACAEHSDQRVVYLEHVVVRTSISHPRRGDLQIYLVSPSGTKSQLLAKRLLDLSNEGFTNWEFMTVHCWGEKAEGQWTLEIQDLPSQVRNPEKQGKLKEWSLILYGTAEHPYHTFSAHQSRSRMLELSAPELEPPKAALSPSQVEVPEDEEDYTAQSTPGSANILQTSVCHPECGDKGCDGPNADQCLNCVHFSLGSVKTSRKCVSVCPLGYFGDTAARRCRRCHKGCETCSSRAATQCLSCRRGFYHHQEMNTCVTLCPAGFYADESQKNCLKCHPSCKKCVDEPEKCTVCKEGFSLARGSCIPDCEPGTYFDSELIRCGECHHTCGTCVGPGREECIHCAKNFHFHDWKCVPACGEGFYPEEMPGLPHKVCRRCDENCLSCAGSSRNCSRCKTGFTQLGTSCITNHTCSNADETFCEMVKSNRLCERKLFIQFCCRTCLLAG
Method: (§1) The inhibitory constant (Ki) was calculated from the IC50 values using the equation of Cheng and Prusoff. Data are the mean ± SD of three independent experiments. The concentration of peptides that inhibited cell growth by 50% (IC50) was determined by MTT cell survival assays in DU145 and LNCaP cell lines. Data represent the mean ± SEM of three independent experiments. Acute cytotoxicity of the compounds at the selected concentrations was measured by lactate dehydrogenase (LDH) assay after 4 h of incubation with DU145 cells. […] Previously published compound: [a] ref.[12]. ML inhibitor was used as control and was re-assayed in presented experiments.
Enzyme kinetic measurements were performed with recombinant hPACE4 as described previously. Enzyme and substrate concentrations used in the present study are presented in Supplementary Table S2.

DU145 cells [1] = assay: LDH release acute cytotoxicity assay; assay type: cell-based; conditions: for LDH release DU145: 4 h incubation, selected concentrations
Method: as §1
(§2) DU145 and LNCaP cells were maintained at low passages (below 30) and cultured in RPMI 1640 (Wisent Bioproducts, QC) with 5 and 10% fetal bovine serum, respectively. For MTT proliferation assays 3500 LNCaP (on poly-L-lysine coated wells) or 1500 DU145 cells were seeded in 96-well plates, and after 24 h, the cells were treated with various concentrations of inhibitors (from 300 to 1 μM). Next, the cells were incubated for 72 h with peptides prior to addition of MTT reagent (Sigma–Aldrich, Canada) at a final concentration of 1 mg/mL. Formazan salt was solubilized with 50 μL DMSO and the metabolic activity was normalized relatively to vehicle-treated cells (sterile bi-distilled water). IC50 values were determined using Prism 5.0 (GraphPad Software, USA), as previously described. For LDH assay, the LDH Cytotoxicity Detection Kit (Promega, USA) was used to quantify the release of lactate dehydrogenase following membrane disruption. As described in our previous work[15], DU145 cells were seeded at a density of 3000 cells/well and allowed to incubate for 24 h. Then, the media was subsequently replaced and cells were incubated with compounds at the selected concentration. Cells treated with 1% SDS were used as a control for maximal LDH release and further relative quantification.

human PSA (hPSA) = target: T2, human PSA (hPSA) (Homo sapiens, UniProt P07288); assay: hPSA cleavage of prodrugs; assay type: biochemical; conditions: extended incubation time up to 24 h; RP-HPLC
T2 construct: enzymatically active hPSA extracted from seminal fluid (Millipore, USA); purchased Millipore, USA; host or cells: human seminal fluid
Method: To determine PSA cleavage efficiency, peptide (125 µM final concentration; approximately 20 µg) were incubated with a final concentration of 20 µg/mL of enzymatically active hPSA extracted from seminal fluid (Millipore, USA) in 50 mM Tris buffer pH 7.4. Samples were analyzed by RP-HPLC (using 35 µL of the reaction solution) by comparing the resulting cleavage product over a standard curve generated using a synthetic cleaved peptide (peptides 1–4). The number of nmol of a cleaved peptide produced over time was then used to calculate the specific activity in pmol product/min/100 pmol PSA to compare the different substrate peptide between each other.

[2] = target: T3, mouse serum albumin (MSA) (Mus musculus, UniProt P07724); assay: MSA conjugation assay; assay type: binding; conditions: PBS pH 7.4, 37 °C; RP-HPLC and MALDI-TOF
T3 construct: purchased Equitech-Bio; Inc., USA
Source text: RP-HPLC and MALDI-TOF analysis were used to confirm completion of the reaction.

LNCaP cells = conditions: 72 h
Method: as §1, §2

DU145 cells [3] = conditions: 72 h
Method: as §1, §2

in vitro = in vitro ADME; conditions: mouse, plasma
Source text: Figure 1S. Plasma ex vivo stability profile of the ML and C23 inhibitor determined by Ultra Performance Liquid Chromatography (UPLC).

[4] = set-up: method as in PMID 25682874; conditions: cited from earlier work
[5] = 4 h incubation with DU145 cells at 100 μM

T3 sequence (P07724 25-608): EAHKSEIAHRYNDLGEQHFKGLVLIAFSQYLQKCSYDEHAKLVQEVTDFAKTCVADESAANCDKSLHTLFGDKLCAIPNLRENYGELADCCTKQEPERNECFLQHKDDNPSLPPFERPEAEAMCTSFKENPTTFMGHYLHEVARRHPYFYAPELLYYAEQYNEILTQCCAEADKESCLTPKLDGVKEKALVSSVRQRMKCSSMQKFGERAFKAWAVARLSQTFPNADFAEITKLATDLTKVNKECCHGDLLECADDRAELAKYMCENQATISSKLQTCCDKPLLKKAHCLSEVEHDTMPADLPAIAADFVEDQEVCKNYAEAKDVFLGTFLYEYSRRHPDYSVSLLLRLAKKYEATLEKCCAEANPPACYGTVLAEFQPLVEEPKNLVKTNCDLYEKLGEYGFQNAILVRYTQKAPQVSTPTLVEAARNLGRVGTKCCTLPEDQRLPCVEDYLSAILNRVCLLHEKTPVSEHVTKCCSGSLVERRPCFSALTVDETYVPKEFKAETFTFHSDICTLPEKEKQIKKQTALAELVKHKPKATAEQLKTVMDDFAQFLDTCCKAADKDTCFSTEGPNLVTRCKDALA
T2 sequence (P07288 25-261): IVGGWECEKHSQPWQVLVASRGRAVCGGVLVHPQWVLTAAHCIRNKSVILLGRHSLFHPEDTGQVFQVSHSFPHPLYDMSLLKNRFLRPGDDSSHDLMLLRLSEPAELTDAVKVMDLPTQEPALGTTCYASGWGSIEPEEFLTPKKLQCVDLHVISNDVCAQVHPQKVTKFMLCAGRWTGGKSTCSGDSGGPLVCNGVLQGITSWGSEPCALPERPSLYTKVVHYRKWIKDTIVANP

For CC(C)C[C@H](NC(=O)CCCNC(=O)[C@H](CC(C)C)NC(=O)[C@@H](N)CO)C(=O)N[C@@H](CC(C)C)C(=O)N[C@@H](CC(C)C)C(=O)N[C@@H](CC(C)C)C(=O)N[C@@H](CCCNC(=N)N)C(=O)N[C@H](C(=O)N[C@@H](CCCCN)C(=O)N[C@@H](CCCNC(=N)N)C(N)=O)C(C)C [Peptide 3] (HELM PEPTIDE1{S.L.[O=C(CCCN[*:1])[*:2]].L.L.L.L.R.V.K.R.[am]}$$$$V2.0), the Ki (recombinant human PACE4) was 56 ± 4 nM, the “LDH release relative to the untreated cells” value (DU145 cells [1]; [5]) was < 5% and the “LDH release DU145” value (DU145 cells [1]) was < 5%.
In the case of MSA-EMC-RSSYYSLLLLLRVKR-NH2 [prodrug 1], the “release of the ML derivative by hPSA” value (human PSA (hPSA)) is reported as “no release product was detected”.
For “EMC-RSSYYSL[4-Apaa]LLLLRVKR-NH2 [Ligand 2]”, the “time to full conjugation to MSA” value [2] was 1 h.
For “Ac-LLLLRVKR-NH2 [ML, reference compound]”, the IC50 (LNCaP cells) was 130 ± 10 µM, the IC50 (DU145 cells [3]) was 90 ± 2 µM and the “LDH release DU145” value (DU145 cells [1]) was < 5%. It also gave a half-life (in vitro) of 7.8 ± 2.3 min.
For CC(=O)N[C@H](CC(C)C)C(=O)N[C@@H](CC(C)C)C(=O)N[C@@H](CC(C)C)C(=O)N[C@@H](CC(C)C)C(=O)N[C@@H](CCCNC(=N)N)C(=O)N[C@H](C(=O)N[C@@H](CCCCN)C(=O)NCc1ccc(C(=N)N)cc1)C(C)C [C23, Ac-[DLeu]LLLRVK-amidinobenzylamide] (HELM PEPTIDE1{[ac].[dL].L.L.L.R.V.K.[N=C(N)c1ccc(CN[*:1])cc1]}$$$$V2.0), the half-life (in vitro) is given as 104 ± 3.6 min, the “in vivo half-life (t1/2)” value [4] is given as 9 ± 3 min and the “time post-injection after which rapidly eliminated” value ([4]; radiolabeled version) is given as 20 min.
For CC(C)C[C@H](NC(=O)COCCOCCNC(=O)[C@H](CC(C)C)NC(=O)[C@@H](N)CO)C(=O)N[C@@H](CC(C)C)C(=O)N[C@@H](CC(C)C)C(=O)N[C@@H](CC(C)C)C(=O)N[C@@H](CCCNC(=N)N)C(=O)N[C@H](C(=O)N[C@@H](CCCCN)C(=O)N[C@@H](CCCNC(=N)N)C(N)=O)C(C)C [Peptide 4] (HELM PEPTIDE1{S.L.[O=C(COCCOCCN[*:1])[*:2]].L.L.L.L.R.V.K.R.[am]}$$$$V2.0), the Ki (recombinant human PACE4) was 62 ± 3 nM, the “LDH release relative to the untreated cells” value (DU145 cells [1]; [5]) was < 5% and the “LDH release DU145” value (DU145 cells [1]) was < 5%.
For “EMC-RSSYYSLLLLLRVKR-NH2 ({EMC}-RSSYYSLLLLLRVKR-NH2) [Ligand 1]”, the “time to full conjugation to MSA” value [2] was 1 h.
For CC(C)C[C@H](NC(=O)Cc1ccc(NC(=O)[C@H](CC(C)C)NC(=O)[C@@H](N)CO)cc1)C(=O)N[C@@H](CC(C)C)C(=O)N[C@@H](CC(C)C)C(=O)N[C@@H](CC(C)C)C(=O)N[C@@H](CCCNC(=N)N)C(=O)N[C@H](C(=O)N[C@@H](CCCCN)C(=O)N[C@@H](CCCNC(=N)N)C(N)=O)C(C)C [Peptide 2] (HELM PEPTIDE1{S.L.[O=C(Cc1ccc(N[*:1])cc1)[*:2]].L.L.L.L.R.V.K.R.[am]}$$$$V2.0), the Ki (recombinant human PACE4) was 68 ± 10 nM, the IC50 (LNCaP cells) was 50 ± 10 µM and the IC50 (DU145 cells [3]) was 19 ± 7 µM. The “LDH release relative to the untreated cells” value (DU145 cells [1]; 4 h incubation with DU145 cells at the IC50 concentration) was < 5% and the “LDH release DU145” value (DU145 cells [1]) was < 5%.
